Earlier results as cited in article PMC9231011, “Irreversible Antagonists for the Adenosine A2B Receptor” (Molecules, 2022).

Columns and labels:
human A1AR = target: T1, human A1AR (Homo sapiens, UniProt P30542); design: method as in PMID 19569717; settings: read-out: A1AR vs. Radioligand [3H]CCPA Ki; cited from earlier work
T1 construct: purchased Perkin Elmer ES-010-M400UA
T1 sequence (P30542 1-326): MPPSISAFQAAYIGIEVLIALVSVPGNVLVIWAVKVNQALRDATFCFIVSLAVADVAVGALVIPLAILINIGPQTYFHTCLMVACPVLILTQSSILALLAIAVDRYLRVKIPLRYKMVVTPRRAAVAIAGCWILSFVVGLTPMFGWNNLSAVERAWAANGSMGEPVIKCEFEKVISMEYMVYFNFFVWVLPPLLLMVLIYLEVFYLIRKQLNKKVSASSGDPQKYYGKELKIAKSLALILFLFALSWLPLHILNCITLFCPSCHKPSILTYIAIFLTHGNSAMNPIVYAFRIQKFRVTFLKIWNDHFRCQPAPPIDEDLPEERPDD

hA3 = target: hA3; design: method as in PMID 30835463, PMID 31646479; settings: Figure 1; cited from earlier work
hA2A = target: hA2A; design: method as in PMID 30835463, PMID 31646479; settings: Figure 1; cited from earlier work
hA1 = target: hA1; design: method as in PMID 30835463, PMID 31646479; settings: Figure 1; cited from earlier work

Compound: CCCn1c(=O)[nH]c2nc(-c3ccc(S(=O)(=O)O)cc3)[nH]c2c1=O [PSB-1115, 1-propyl-8-(p-sulfophenyl)xanthine, reference compound]
- Ki (human A1AR): > 10 µM
- Ki (hA3): > 10 µM
- Ki (hA2A): 3.79 µM
- Ki (hA1): > 10 µM
